Laboratory results as given in paper PMC5589570, “The antigenic identity of human class I MHC phosphopeptides is critically dependent upon phosphorylation status” (Oncotarget, 2017).
Read-outs that look alike come from different tables or passages of the source. Square brackets hold non-standard residues; d marks the D form. Ends that are not written are not given here. Peptide text beside a SMILES is read from it. pS = N[C@@H](COP(=O)(O)O)C(=O)O

Legend:
[1] = target: T1, HLA-A2 (Homo sapiens, UniProt P04439, D140Y/D185E/D98H/E176V/E277Q/G131W/G231S/I119V/I121R/I166T/I218V/L300P/L318F/N151K/N90K/P208A/P217A/Q86G/Q94H/R138H/R169H/T345S); test: Competitive peptide-MHC affinity assay (displacement of radiolabeled peptide); conditions: competitive binding, IC50 of displacement of radiolabeled peptide taken as approximation of Kd; 100,000-fold concentration range, each concentration in triplicate; W6/32 capture; read-out: Kd (pMHC affinity for HLA-A2)
T1 construct: made in house
Experimental: HLA-A2 heavy chain was expressed in E. coli, refolded with β2M and the peptide […], and purified as described above. Competitive peptide binding assays were carried out as described. Test peptide concentrations covered a 100,000-fold range, with each concentration assayed in triplicate. MHC-peptide complexes were captured on microplates coated with monoclonal antibody W6/32 (to human HLA) and washed, and radioactivity quantified with a microscintillation counter. The concentration of test peptide that displaced 50% of the radiolabeled peptide (IC50) was calculated. In these conditions (in which the concentration of the label is less than the concentration of MHC and the IC50 is greater than or equal to the concentration of MHC), the IC50 is a reasonable approximation of the dissociation constant.

[2] = target: T1, HLA-A2; design: method as in PMID 18836451; conditions: binding of peptide to HLA-A2, modified vs unmodified form; read-out: Kd (pMHC affinity for HLA-A2); cited from earlier work
[3] = tested on: TCRpCDC25b; test: SPR (BIAcore) TCR/peptide-MHC binding, HLA-A2-peptide complex injected over immobilised TCR; design: species or system mice; conditions: for specific binding of HLA-A2-peptide complex to immobilised TCRpCDC25b: responses compared with control surfaces (LDN5 and streptavidin), Figure 7A
From the text: Having established that phosphorylation has diverse effects on epitope structure, we aimed to test whether a phosphorylated epitope could be distinguished from its unmodified counterpart by the TCR. We previously generated phosphopeptide-specific CD8^+ T cells by immunising mice expressing a transgenic recombinant HLA-A*0201 molecule (AAD) with activated bone-marrow-derived dendritic cells pulsed with synthetic phosphopeptides corresponding to those naturally presented on the surface of human tumour cell lines. Despite the ability to isolate functional phosphopeptide specific T-cells, attempts to generate clonal populations of RQA_V specific T-cells for TCR isolation or produce soluble TCRs of sufficient quality from T-cell clones specific for PKD and RQI were unsuccessful. However we were able to generate soluble TCR (termed TCRpCDC25b) using cDNA sequences isolated from a T cell clone that recognised a phosphopeptide epitope derived from the CDC25b protein (GLLGpSPVRA, subsequently termed GLLGpS) of sufficient quality for surface plasmon resonance analysis.
To investigate if recognition was dependent on the GLLGS amino acid sequence, we also tested binding of immobilised TCRpCDC25b to HLA-A2 containing a different phosphopeptide featuring a p-Ser at position 5 (SLLTpSPPKA (termed SLLTpS) derived from Thyroid hormone receptor interacting protein 12). […] We then measured the strength of TCRpCDC25b phosphopeptide recognition by equilibrium affinity analysis, repeating injections of HLA-A2-GLLGpS over a range of concentrations (Figure 7B). […] In both orientations, the presence of low-level protein aggregates was evident at higher concentrations.
Experiments utilised a BIAcore 3000 and HBS-EP buffer, at a flow rate of 10 μl.min^−1. For HLA-peptide injections, recombinant TCRs were produced in the Drosophila expression system incorporating C-terminal biotinylation tags, biotinylated in vitro using BirA, and immobilised to streptavidin-coated CM5 surfaces. […] Data were analysed using BIAevaluation 3.1 and Origin graphing software.

Row | Kd [1] [nM] | Compound | other results
1 | 60 | CC[C@H](C)[C@H](NC(=O)[C@H](COP(=O)(O)O)NC(=O)[C@H](C)NC(=O)[C@H](CCC(N)=O)NC(=O)[C@@H](N)CCCNC(=N)N)C(=O)N[C@@H](CCC(=O)O)C(=O)N[C@@H](CC(C)C)C(=O)N1CCC[C@H]1C(=O)N[C@@H](CO)C(=O)N[C@@H](CCSC)C(=O)N[C@@H](C)C(=O)N[C@H](C(=O)O)C(C)C [RQA_Vp] | 
2 | 26 | CC[C@H](C)[C@H](NC(=O)[C@H](CO)NC(=O)[C@H](C)NC(=O)[C@H](CCC(N)=O)NC(=O)[C@@H](N)CCCNC(=N)N)C(=O)N[C@@H](CCC(=O)O)C(=O)N[C@@H](CC(C)C)C(=O)N1CCC[C@H]1C(=O)N[C@@H](CO)C(=O)N[C@@H](CCSC)C(=O)N[C@@H](C)C(=O)N[C@H](C(=O)O)C(C)C [RQA_Vnp] | 
3 |  | RQApSLSISV [PKD2p, canonical phosphopeptide antigen derived from Protein Kinase D2] | Kd [2]: 38.5 nM
4 | 25.5 | CC[C@H](C)[C@H](NC(=O)[C@H](CCC(N)=O)NC(=O)[C@@H](N)CCCNC(=N)N)C(=O)N[C@@H](COP(=O)(O)O)C(=O)N[C@@H](CCC(N)=O)C(=O)N[C@@H](CC(=O)O)C(=O)N[C@H](C(=O)N[C@@H](CCCCN)C(=O)N[C@@H](CC(C)C)C(=O)O)C(C)C [RQIp] (H-RQI[pS]QDVKL-OH) | 
5 | 1920 | RQISQDVKL [RQInp] | 
6 |  | GLLGpSPVRA | specific binding of HLA-A2-peptide complex to immobilised TCRpCDC25b [3]: specific binding; Kd ([3]; two independent equilibrium analyses, once in either orientation, Scatchard analyses and hyperbolic fitting, read-out: Kd values from both orientations (range)): 35 to 41 µM
7 |  | SLLTpSPPKA [reference compound] | specific binding of HLA-A2-peptide complex to immobilised TCRpCDC25b [3]: identical responses over TCRpCDC25b and control surfaces
